According to patent US20020137929A1, “1 - (3-heterocyclylphenyl) isothiourea, -isourea, -guanidine and -amidine herbicidal agents” (Intellectual Property Department, BASF Aktiengesellschaft, priority 1998, published 2002):

Tests used:
ABUTH (Velvetleaf) = test: Postemergence herbicidal evaluation; assay type: in vivo, Abutilon theophrasti; conditions: postemergence
Summary of the method: (§1)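 Herbicidal effect was judged by eye on a 0–9 scale covering stand, vigor, deformity, size and chlorosis, compared with controls, four to five weeks after seedlings about two weeks old were sprayed (40 psi, ~0.0156–0.500 kg/ha).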

[1] = system: CHEAL (Lambsquarters, Common); test: Postemergence herbicidal evaluation; assay type: in vivo, Chenopodium album; conditions: postemergence
Summary of the method: as §1

SETVI (Foxtail, Green) [2] = test: Postemergence herbicidal evaluation; assay type: in vivo, Setaria viridis; conditions: postemergence
Summary of the method: as §1

[3] = system: GLXMAW (Soybean, Williams); test: Postemergence herbicidal evaluation; assay type: in vivo, Glycine max, (L.) Merr. cv Williams; conditions: postemergence
Summary of the method: as §1

ORYSAT (Rice, Tebonnet) = test: Postemergence herbicidal evaluation; assay type: in vivo, Oryza sativa, (L.) Tebonnet; conditions: postemergence
Summary of the method: as §1

[4] = system: TRZAWR (Wheat, Winter, cv Riband); test: Postemergence herbicidal evaluation; assay type: in vivo, Triticum aestivum; conditions: postemergence
Summary of the method: as §1

ZEAMX (Corn, Field) = test: Postemergence herbicidal evaluation; assay type: in vivo, Zea mays; conditions: postemergence
Summary of the method: as §1

AMBEL (Ragweed, Common) = test: Preemergence herbicidal evaluation; assay type: in vivo, Ambrosia artemisifolia; conditions: rated 4-5 weeks after treatment
Summary of the method: (§2)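 Seeds were planted in potting soil in cups, then sprayed preemergence with the test compound in aqueous acetone at about 0.0156 to 0.500 kg per hectare. Cups were kept under greenhouse conditions and visually rated 4–5 weeks after treatment on a 0–9 scale against an untreated control.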

GALAP (Galium) = test: Preemergence herbicidal evaluation; assay type: in vivo, Galium aparine; conditions: rated 4-5 weeks after treatment
Summary of the method: as §2

SETVI (Foxtail, Green) [5] = test: Preemergence herbicidal evaluation; assay type: in vivo, Setaria viridis; conditions: rated 4-5 weeks after treatment
Summary of the method: as §2

CYPIR (Rice Flatsedge) = test: Preemergence weed control under flooded paddy conditions; assay type: in vivo, Cyperus iria; conditions: rated 3-4 weeks after treatment
Summary of the method: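 Silt loam, seeds in top 0.5 cm; flood held 1.5-3 cm; test cpd as acetone/water 50/50 into flood water, ~0.0313-0.500 kg/ha a.i.; greenhouse 3-4 wk; visual 0-9 score vs control.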

[6] = system: ECHORC (Watergrass (Calif.)); test: Postemergence weed control under flooded paddy conditions; assay type: in vivo, Echinochloa oryzoides; conditions: postemergence weeds
Summary of the method: (§3)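 Containers holding 3–5 cm weeds and rice at 1.5–2.5 leaves are flooded to 1.5–3 cm above soil. Compound in 50/50 v/v aqueous/acetone is then added directly to the water, about 0.0313–0.500 kg/ha. Plants are kept in the greenhouse and rated 0–9 visually at 3–4 weeks.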

CYPSE (Flatsedge) = test: as above; assay type: in vivo, Cyperus serotinus; conditions: postemergence weeds
Summary of the method: as §3

[7] = system: SAGPY (Arrowhead (Pygmaea)); test: as above; assay type: in vivo, Sagittaria pygmaea; conditions: postemergence weeds
Summary of the method: as §3

[8] = Rate 0.0313 kg/ha, rated 3 to 4 weeks after treatment
[9] = Rate 0.0625 kg/ha, rated 3 to 4 weeks after treatment
[10] = Rate 0.1250 kg/ha, rated 3 to 4 weeks after treatment
[11] = Rate 0.2500 kg/ha, rated 3 to 4 weeks after treatment
[12] = rate 0.0313 kg/ha, 3-4 weeks after treatment
[13] = rate 0.0625 kg/ha, 3-4 weeks after treatment
[14] = rate 0.1250 kg/ha, 3-4 weeks after treatment
[15] = rate 0.2500 kg/ha, 3-4 weeks after treatment

C[C@@H](C(=O)OC(C)(C)C)N1C(=O)CSC1=Nc1cc(-n2c(=O)cc(C(F)(F)F)n(C)c2=O)c(F)cc1Cl [Compound 75, tert-Butyl 2-{{2-chloro-5-[3,6-dihydro-3-methyl-2,6-dioxo-4-(trifluoromethyl)-1(2H)-pyrimidinyl]-4-fluorophenyl}imino}-α-methyl-4-oxo-3-thiazolidineacetate, L-]
ABUTH herbicidal rating (ABUTH (Velvetleaf); rate 0.0158 kg/ha): 9.0 | ABUTH herbicidal rating (ABUTH (Velvetleaf); rate 0.0315 kg/ha): 9.0 | ABUTH herbicidal rating (ABUTH (Velvetleaf); rate 0.0630 kg/ha): 9.0 | CHEAL herbicidal rating ([1]; rate 0.0158 kg/ha): 7.0 | CHEAL herbicidal rating ([1]; rate 0.0315 kg/ha): 7.0 | CHEAL herbicidal rating ([1]; rate 0.0630 kg/ha): 7.0 | SETVI herbicidal rating (SETVI (Foxtail, Green) [2]; rate 0.0158 kg/ha): 1.0 | SETVI herbicidal rating (SETVI (Foxtail, Green) [2]; rate 0.0315 kg/ha): 5.0 | SETVI herbicidal rating (SETVI (Foxtail, Green) [2]; rate 0.0630 kg/ha): 3.0 | GLXMAW herbicidal rating ([3]; rate 0.0158 kg/ha): 4.0 | GLXMAW herbicidal rating ([3]; rate 0.0315 kg/ha): 4.5 | GLXMAW herbicidal rating ([3]; rate 0.0630 kg/ha): 5.0 | ORYSAT herbicidal rating (ORYSAT (Rice, Tebonnet); rate 0.0158 kg/ha): 2.0 | ORYSAT herbicidal rating (ORYSAT (Rice, Tebonnet); rate 0.0315 kg/ha): 2.5 | ORYSAT herbicidal rating (ORYSAT (Rice, Tebonnet); rate 0.0630 kg/ha): 2.5 | TRZAWR herbicidal rating ([4]; rate 0.0158 kg/ha): 2.5 | TRZAWR herbicidal rating ([4]; rate 0.0315 kg/ha): 2.5 | TRZAWR herbicidal rating ([4]; rate 0.0630 kg/ha): 2.5 | ZEAMX herbicidal rating (ZEAMX (Corn, Field); rate 0.0158 kg/ha): 4.0 | ZEAMX herbicidal rating (ZEAMX (Corn, Field); rate 0.0315 kg/ha): 4.5 | ZEAMX herbicidal rating (ZEAMX (Corn, Field); rate 0.0630 kg/ha): 5.0 | Preemergence herbicidal rating AMBEL (AMBEL (Ragweed, Common); rate 0.0156 kg/ha): 0.0 | Preemergence herbicidal rating AMBEL (AMBEL (Ragweed, Common); rate 0.0313 kg/ha): 0.0 | Preemergence herbicidal rating AMBEL (AMBEL (Ragweed, Common); rate 0.0625 kg/ha): 1.0 | Preemergence herbicidal rating AMBEL (AMBEL (Ragweed, Common); rate 0.1250 kg/ha): 6.0 | Preemergence herbicidal rating AMBEL (AMBEL (Ragweed, Common); rate 0.2500 kg/ha): 7.0 | Preemergence herbicidal rating GALAP (GALAP (Galium); rate 0.0156 kg/ha): 0.0 | Preemergence herbicidal rating GALAP (GALAP (Galium); rate 0.0313 kg/ha): 0.0 | Preemergence herbicidal rating GALAP (GALAP (Galium); rate 0.0625 kg/ha): 0.0 | Preemergence herbicidal rating GALAP (GALAP (Galium); rate 0.1250 kg/ha): 0.0 | Preemergence herbicidal rating GALAP (GALAP (Galium); rate 0.2500 kg/ha): 0.0 | Preemergence herbicidal rating SETVI (SETVI (Foxtail, Green) [5]; rate 0.0156 kg/ha): 0.0 | Preemergence herbicidal rating SETVI (SETVI (Foxtail, Green) [5]; rate 0.0313 kg/ha): 0.0 | Preemergence herbicidal rating SETVI (SETVI (Foxtail, Green) [5]; rate 0.0625 kg/ha): 0.0 | Preemergence herbicidal rating SETVI (SETVI (Foxtail, Green) [5]; rate 0.1250 kg/ha): 9.0 | Preemergence herbicidal rating SETVI (SETVI (Foxtail, Green) [5]; rate 0.2500 kg/ha): 9.0 | CYPIR herbicidal effect rating (CYPIR (Rice Flatsedge); 0.0313 kg/ha): 0.0 | CYPIR herbicidal effect rating (CYPIR (Rice Flatsedge); 0.0625 kg/ha): 0.0 | CYPIR herbicidal effect rating (CYPIR (Rice Flatsedge); 0.1250 kg/ha): 6.0 | CYPIR herbicidal effect rating (CYPIR (Rice Flatsedge); 0.2500 kg/ha): 6.0 | Herbicidal rating ECHORC [6, 8]: 6.0 | Herbicidal rating ECHORC [6, 9]: 6.0 | Herbicidal rating ECHORC [6, 10]: 9.0 | Herbicidal rating ECHORC [6, 11]: 9.0 | Herbicidal rating CYPSE (CYPSE (Flatsedge); [8]): 2.0 | Herbicidal rating CYPSE (CYPSE (Flatsedge); [9]): 3.0 | Herbicidal rating CYPSE (CYPSE (Flatsedge); [10]): 3.0 | Herbicidal rating CYPSE (CYPSE (Flatsedge); [11]): 3.0 | Herbicidal rating SAGPY [7, 8]: 0.0 | Herbicidal rating SAGPY [7, 9]: 0.0 | Herbicidal rating SAGPY [7, 10]: 0.0 | Herbicidal rating SAGPY [7, 11]: 3.0

CCOC(=O)CN1C(=O)C2(CC2)SC1=Nc1cc(-n2c(=O)cc(C(F)(F)F)n(C)c2=O)c(F)cc1Cl [Compound 15, Ethyl 5-{{2-chloro-5-[3,6-dihydro-3-methyl-2,6-dioxo-4-(trifluoromethyl)-1(2H)-pyrimidinyl]-4-fluorophenyl}imino}-7-oxo-4-thia-6-azaspiro[2.4]-heptane-6-acetate]
ABUTH herbicidal rating (ABUTH (Velvetleaf); rate 0.0156 kg/ha): 9.0 | ABUTH herbicidal rating (ABUTH (Velvetleaf); rate 0.0313 kg/ha): 9.0 | ABUTH herbicidal rating (ABUTH (Velvetleaf); rate 0.0625 kg/ha): 9.0 | ABUTH herbicidal rating (ABUTH (Velvetleaf); rate 0.1250 kg/ha): 9.0 | CHEAL herbicidal rating ([1]; rate 0.0156 kg/ha): 3.0 | CHEAL herbicidal rating ([1]; rate 0.0313 kg/ha): 3.0 | CHEAL herbicidal rating ([1]; rate 0.0625 kg/ha): 9.0 | CHEAL herbicidal rating ([1]; rate 0.1250 kg/ha): 9.0 | SETVI herbicidal rating (SETVI (Foxtail, Green) [2]; rate 0.0156 kg/ha): 0.0 | SETVI herbicidal rating (SETVI (Foxtail, Green) [2]; rate 0.0313 kg/ha): 0.0 | SETVI herbicidal rating (SETVI (Foxtail, Green) [2]; rate 0.0625 kg/ha): 2.0 | SETVI herbicidal rating (SETVI (Foxtail, Green) [2]; rate 0.1250 kg/ha): 7.0 | GLXMAW herbicidal rating ([3]; rate 0.0156 kg/ha): 3.5 | GLXMAW herbicidal rating ([3]; rate 0.0313 kg/ha): 4.0 | GLXMAW herbicidal rating ([3]; rate 0.0625 kg/ha): 4.5 | GLXMAW herbicidal rating ([3]; rate 0.1250 kg/ha): 5.5 | ORYSAT herbicidal rating (ORYSAT (Rice, Tebonnet); rate 0.0156 kg/ha): 4.5 | ORYSAT herbicidal rating (ORYSAT (Rice, Tebonnet); rate 0.0313 kg/ha): 5.0 | ORYSAT herbicidal rating (ORYSAT (Rice, Tebonnet); rate 0.0625 kg/ha): 6.5 | ORYSAT herbicidal rating (ORYSAT (Rice, Tebonnet); rate 0.1250 kg/ha): 6.5 | TRZAWR herbicidal rating ([4]; rate 0.0156 kg/ha): 5.0 | TRZAWR herbicidal rating ([4]; rate 0.0313 kg/ha): 6.0 | TRZAWR herbicidal rating ([4]; rate 0.0625 kg/ha): 6.5 | TRZAWR herbicidal rating ([4]; rate 0.1250 kg/ha): 7.0 | ZEAMX herbicidal rating (ZEAMX (Corn, Field); rate 0.0156 kg/ha): 5.0 | ZEAMX herbicidal rating (ZEAMX (Corn, Field); rate 0.0313 kg/ha): 6.0 | ZEAMX herbicidal rating (ZEAMX (Corn, Field); rate 0.0625 kg/ha): 7.0 | ZEAMX herbicidal rating (ZEAMX (Corn, Field); rate 0.1250 kg/ha): 7.5 | AMBEL preemergence herbicidal rating (AMBEL (Ragweed, Common); rate 0.0156 kg/ha): 0.5 | AMBEL preemergence herbicidal rating (AMBEL (Ragweed, Common); rate 0.0313 kg/ha): 1.0 | AMBEL preemergence herbicidal rating (AMBEL (Ragweed, Common); rate 0.0625 kg/ha): 1.5 | AMBEL preemergence herbicidal rating (AMBEL (Ragweed, Common); rate 0.1250 kg/ha): 3.0 | AMBEL preemergence herbicidal rating (AMBEL (Ragweed, Common); rate 0.2500 kg/ha): 9.0 | GALAP preemergence herbicidal rating (GALAP (Galium); rate 0.0156 kg/ha): 0.0 | GALAP preemergence herbicidal rating (GALAP (Galium); rate 0.0313 kg/ha): 0.0 | GALAP preemergence herbicidal rating (GALAP (Galium); rate 0.0625 kg/ha): 9.0 | GALAP preemergence herbicidal rating (GALAP (Galium); rate 0.1250 kg/ha): 9.0 | GALAP preemergence herbicidal rating (GALAP (Galium); rate 0.2500 kg/ha): 9.0 | SETVI preemergence herbicidal rating (SETVI (Foxtail, Green) [5]; rate 0.0156 kg/ha): 0.5 | SETVI preemergence herbicidal rating (SETVI (Foxtail, Green) [5]; rate 0.0313 kg/ha): 0.5 | SETVI preemergence herbicidal rating (SETVI (Foxtail, Green) [5]; rate 0.0625 kg/ha): 0.5 | SETVI preemergence herbicidal rating (SETVI (Foxtail, Green) [5]; rate 0.1250 kg/ha): 4.0 | SETVI preemergence herbicidal rating (SETVI (Foxtail, Green) [5]; rate 0.2500 kg/ha): 9.0 | Herbicidal rating CYPIR (CYPIR (Rice Flatsedge); 0.0313 kg/ha): 2.0 | Herbicidal rating CYPIR (CYPIR (Rice Flatsedge); 0.0625 kg/ha): 2.0 | Herbicidal rating CYPIR (CYPIR (Rice Flatsedge); 0.1250 kg/ha): 6.0 | Herbicidal rating CYPIR (CYPIR (Rice Flatsedge); 0.2500 kg/ha): 7.0 | Herbicidal rating ECHORC [6, 12]: 6.0 | Herbicidal rating ECHORC [6, 13]: 9.0 | Herbicidal rating ECHORC [6, 14]: 9.0 | Herbicidal rating ECHORC [6, 15]: 9.0 | Herbicidal rating CYPSE (CYPSE (Flatsedge); [12]): 0.0 | Herbicidal rating CYPSE (CYPSE (Flatsedge); [13]): 0.0 | Herbicidal rating CYPSE (CYPSE (Flatsedge); [14]): 0.0 | Herbicidal rating CYPSE (CYPSE (Flatsedge); [15]): 0.0 | Herbicidal rating SAGPY [7, 12]: 0.0 | Herbicidal rating SAGPY [7, 13]: 0.0 | Herbicidal rating SAGPY [7, 14]: 0.0 | Herbicidal rating SAGPY [7, 15]: 0.0
